Measurements: ChEMBL document CHEMBL2007661, “Compounds: GSK PKIS; Assays: UNC Frye lab” (2012)
Several values for one entry are separate records, joined by “and”; a condition that tells them apart may be missing. Identical values can stand only once.

Legend:
Details in all cases: at 1 µM
[1] = biological target: T1, Inhibitor of nuclear factor kappa-B kinase subunit beta (Homo sapiens) (UniProt O14920)
T1 sequence (whole entry): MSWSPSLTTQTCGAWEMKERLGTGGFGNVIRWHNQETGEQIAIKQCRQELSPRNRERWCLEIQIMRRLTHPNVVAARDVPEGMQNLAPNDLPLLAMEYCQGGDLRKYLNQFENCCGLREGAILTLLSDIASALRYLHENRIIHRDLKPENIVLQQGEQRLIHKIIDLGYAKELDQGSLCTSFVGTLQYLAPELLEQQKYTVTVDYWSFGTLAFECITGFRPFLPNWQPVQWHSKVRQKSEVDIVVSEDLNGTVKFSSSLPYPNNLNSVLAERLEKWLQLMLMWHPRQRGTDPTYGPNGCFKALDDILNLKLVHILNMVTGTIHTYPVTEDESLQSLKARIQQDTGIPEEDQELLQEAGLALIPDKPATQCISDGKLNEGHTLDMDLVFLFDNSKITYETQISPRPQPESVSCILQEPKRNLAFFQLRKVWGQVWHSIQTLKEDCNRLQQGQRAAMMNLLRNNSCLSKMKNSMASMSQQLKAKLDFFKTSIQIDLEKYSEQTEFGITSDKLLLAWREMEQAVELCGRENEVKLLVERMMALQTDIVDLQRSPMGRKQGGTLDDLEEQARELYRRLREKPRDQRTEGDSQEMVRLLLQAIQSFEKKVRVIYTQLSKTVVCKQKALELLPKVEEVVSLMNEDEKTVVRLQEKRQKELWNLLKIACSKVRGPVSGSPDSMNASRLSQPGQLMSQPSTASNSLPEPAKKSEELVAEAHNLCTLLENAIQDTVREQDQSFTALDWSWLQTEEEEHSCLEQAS

[2] = biological target: T2, Inhibitor of nuclear factor kappa-B kinase subunit alpha (Homo sapiens) (UniProt O15111)
T2 sequence (whole entry): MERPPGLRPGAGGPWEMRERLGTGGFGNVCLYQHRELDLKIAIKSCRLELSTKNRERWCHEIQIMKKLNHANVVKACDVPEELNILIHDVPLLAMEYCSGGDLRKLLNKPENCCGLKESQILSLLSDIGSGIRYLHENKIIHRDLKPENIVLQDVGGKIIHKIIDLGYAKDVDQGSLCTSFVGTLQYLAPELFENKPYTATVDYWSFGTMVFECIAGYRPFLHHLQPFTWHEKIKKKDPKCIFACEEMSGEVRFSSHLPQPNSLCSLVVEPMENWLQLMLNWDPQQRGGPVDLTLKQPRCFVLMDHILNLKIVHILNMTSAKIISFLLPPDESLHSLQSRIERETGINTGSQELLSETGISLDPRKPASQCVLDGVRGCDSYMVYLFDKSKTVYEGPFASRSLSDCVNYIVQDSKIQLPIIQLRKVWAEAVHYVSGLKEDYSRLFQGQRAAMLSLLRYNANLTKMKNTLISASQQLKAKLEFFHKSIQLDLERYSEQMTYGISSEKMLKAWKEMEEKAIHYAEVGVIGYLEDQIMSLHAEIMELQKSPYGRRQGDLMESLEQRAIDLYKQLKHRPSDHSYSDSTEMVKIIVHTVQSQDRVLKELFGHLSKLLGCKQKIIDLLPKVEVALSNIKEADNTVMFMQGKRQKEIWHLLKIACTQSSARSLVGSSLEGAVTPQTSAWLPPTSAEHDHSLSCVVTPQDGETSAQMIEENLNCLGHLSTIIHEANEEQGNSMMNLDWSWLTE

[3] = biological target: T3, Inhibitor of nuclear factor kappa-B kinase subunit epsilon (Homo sapiens) (UniProt Q14164)
T3 sequence (whole entry): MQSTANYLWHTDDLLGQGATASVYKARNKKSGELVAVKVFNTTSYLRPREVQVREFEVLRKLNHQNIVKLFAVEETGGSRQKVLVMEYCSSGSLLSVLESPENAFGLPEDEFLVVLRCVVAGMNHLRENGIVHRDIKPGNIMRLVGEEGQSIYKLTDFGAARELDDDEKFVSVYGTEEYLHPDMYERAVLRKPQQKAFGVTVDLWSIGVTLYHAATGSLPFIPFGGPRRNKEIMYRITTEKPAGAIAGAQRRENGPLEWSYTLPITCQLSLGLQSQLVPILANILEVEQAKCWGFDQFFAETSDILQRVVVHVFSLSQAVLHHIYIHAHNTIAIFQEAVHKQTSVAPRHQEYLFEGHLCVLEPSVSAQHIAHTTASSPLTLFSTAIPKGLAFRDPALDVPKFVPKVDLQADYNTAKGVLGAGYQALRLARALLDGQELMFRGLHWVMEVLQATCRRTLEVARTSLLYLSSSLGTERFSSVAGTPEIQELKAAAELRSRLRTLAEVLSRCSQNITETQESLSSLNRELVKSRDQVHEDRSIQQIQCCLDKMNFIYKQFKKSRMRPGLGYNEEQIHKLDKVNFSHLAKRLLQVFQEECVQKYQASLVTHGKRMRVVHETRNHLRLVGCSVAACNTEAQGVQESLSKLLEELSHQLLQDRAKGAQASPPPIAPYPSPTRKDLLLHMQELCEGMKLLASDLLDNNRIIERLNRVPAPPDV

In the case of `COc1ccc(-c2cc(-c3c[nH]nc3-c3ccccn3)ccn2)cc1`, the inhibition [1] is reported as -7% and -8%, the inhibition [2] is reported as 6% and the inhibition [3] is reported as -2% and -1%.
`O=C(Nc1n[nH]c2cc(-c3ccccc3)ccc12)C1CC1` was tested, and the inhibition [1] was -2% and -6%, the inhibition [2] was 9% and -2% and the inhibition [3] was -1%.
`[O-][S+]1CCN(Cc2ccc(-c3ccc4ncnc(Nc5ccc(OCc6cccc(F)c6)c(Cl)c5)c4c3)o2)CC1` was tested, and the inhibition [1] was 2% and 3%, the inhibition [2] was 16% and 1% and the inhibition [3] was 1% and 2%.
In the case of `COc1ccc2cc(-c3c(-c4ccncc4)nc(-c4ccc([S+](C)[O-])cc4C)n3C)ccc2c1` (stereo unspecified), the inhibition [1] is reported as 1% and 0%, the inhibition [2] is reported as -4% and -5% and the inhibition [3] is reported as -1% and -2%.
In the case of `COc1cc2ncn(-c3cc(OCc4ccccc4C(F)(F)F)c(C(C)=O)s3)c2cc1OC`, the inhibition [1] is reported as -7% and -4%, the inhibition [2] is reported as 5% and 4% and the inhibition [3] is reported as -4%.
In the case of `NS(=O)(=O)c1ccc(Nc2cc(-c3cccc(O)c3)n[nH]2)cc1`, the inhibition [1] is reported as -3% and -2%, the inhibition [2] is reported as -1% and 0% and the inhibition [3] is reported as -2% and -3%.
In the case of `CN(C)CCNC(=O)Nc1ccc(N(C)c2ccnc(Nc3ccc(CS(C)(=O)=O)cc3)n2)cc1`, the inhibition [1] is reported as -1% and -5%, the inhibition [2] is reported as 1% and the inhibition [3] is reported as 1%.
With `Oc1cccc(-c2nc(-c3ccccc3)[nH]c2-c2ccncc2)c1` the inhibition [1] was 1% and 0%, the inhibition [2] was 2% and the inhibition [3] was -1% and -3%.
For `COc1ccc(-c2nn3ncccc3c2-c2ccnc(Nc3ccc4c(c3)OCCO4)n2)cc1`, the inhibition [1] was -4%, the inhibition [2] was 1% and the inhibition [3] was 1%.
With `COc1ccc(-c2oc3ncnc(N)c3c2-c2ccc(NC(=O)Nc3cc(C(F)(F)F)ccc3F)cc2)cc1` the inhibition [1] was -8% and -6%, the inhibition [2] was 2% and 1% and the inhibition [3] was 9% and 10%.
For `Fc1ccc(-c2ncn(C3CCNCC3)c2-c2ccnc(Oc3ccccc3)n2)cc1`, the inhibition [1] was -2%, the inhibition [2] was 3% and 2% and the inhibition [3] was -1% and -2%.
With `CS(=O)(=O)Nc1ccc(N/C=C2\C(=O)Nc3ccccc32)cc1` the inhibition [1] was -1% and -4%, the inhibition [2] was 4% and 0% and the inhibition [3] was 25% and 24%.
With `CCn1c(-c2nonc2N)nc2cncc(C(=O)N3CC[C@H](N)C3)c21` the inhibition [1] was -1% and -5%, the inhibition [2] was 35% and 28% and the inhibition [3] was 54% and 53%.
`COc1ccc(Nc2ncc(-c3ccccc3)o2)cc1OC` was tested, and the inhibition [1] was -2% and -6%, the inhibition [2] was 1% and the inhibition [3] was 5% and 4%.
In the case of `Cc1nnc(-c2cccc(-c3ccc(C(=O)NCC4CC4)cc3)c2)o1`, the inhibition [1] is reported as -4%, the inhibition [2] is reported as 3% and 4% and the inhibition [3] is reported as -1%.
`CN(C)CCCn1c(-c2nonc2N)nc2cnccc21` was tested, and the inhibition [1] was -5% and -4%, the inhibition [2] was 8% and 10% and the inhibition [3] was 2%.
In the case of `O=C1Nc2ccccc2/C1=C/Nc1ccc2[nH]c(=O)[nH]c2c1`, the inhibition [1] is reported as -5% and -3%, the inhibition [2] is reported as 1% and the inhibition [3] is reported as 22% and 20%.
With `CNC(=O)c1cncc(/C=C/c2ccccc2Cl)c1` the inhibition [1] was -5%, the inhibition [2] was 3% and 1% and the inhibition [3] was 0%.
In the case of `O=C1Nc2ccc(-c3cccnc3)cc2C1=Cc1cc(Br)c(O)c(Br)c1`, the inhibition [1] is reported as -5% and -4%, the inhibition [2] is reported as 16% and 2% and the inhibition [3] is reported as 37% and 39%.
In the case of `CN(c1ccc(NC(=O)Nc2ccc(OC(F)(F)F)cc2)cc1)c1ccnc(Nc2cccc(S(N)(=O)=O)c2)n1`, the inhibition [1] is reported as -5% and -4%, the inhibition [2] is reported as 2% and 3% and the inhibition [3] is reported as 17% and 18%.
`CN1CCN(Cc2ccc(-c3cc4ncnc(Nc5ccc(OCc6cccc(F)c6)c(Cl)c5)c4s3)o2)CC1` was tested, and the inhibition [1] was -3%, the inhibition [2] was 0% and -4% and the inhibition [3] was 6% and 5%.
In the case of `COc1cc2ncn(-c3cc(OCc4ccccc4C(F)(F)F)c(C(N)=O)s3)c2cc1OC`, the inhibition [1] is reported as -1% and 0%, the inhibition [2] is reported as 2% and 0% and the inhibition [3] is reported as 0% and 3%.
With `CN1CCC(C(=O)Nc2n[nH]c3nc(-c4ccc(O)cc4)c(Br)cc23)CC1` the inhibition [1] was -1% [middle of 4 runs], the inhibition [2] was 1% and 3% and 4% and the inhibition [3] was 2% (2×) and 1%.
For `COC(=O)Nc1nc2cc(Oc3ccc(NC(=O)Nc4ccccc4)cc3)ccc2[nH]1`, the inhibition [1] was 1% and -1%, the inhibition [2] was -1% and -2% and the inhibition [3] was 2% and 1%.
For `FC(F)(F)CNc1nccc(-c2cnn3ncccc23)n1`, the inhibition [1] was -5% and 2%, the inhibition [2] was 2% and 7% and the inhibition [3] was -2% and -1%.
`CCCN1CCC=C(c2ccc(Nc3nc(Nc4ccccc4C(N)=O)c4cc[nH]c4n3)c(C)c2)C1` was tested, and the inhibition [1] was -3% and -1%, the inhibition [2] was 4% and 2% and the inhibition [3] was 13% and 12%.
`O=C(Nc1n[nH]c2nc(-c3ccco3)c(Br)cc12)C1CC1` was tested, and the inhibition [1] was -5% and -1%, the inhibition [2] was 85% and the inhibition [3] was 0%.
For `CCn1c(-c2nonc2N)nc2c(C#CC(C)(C)O)ncc(OC3CCNCC3)c21`, the inhibition [1] was -4%, the inhibition [2] was 9% and 5% and the inhibition [3] was 95% and 96%.
For `Cc1cc(-c2ccco2)cc(C)c1/C=C/c1cncc(-c2nn[nH]n2)c1`, the inhibition [1] was -1% and -3%, the inhibition [2] was -4% and -2% and the inhibition [3] was 9% and 11%.
For `OCCCNc1nccc(-c2c(-c3ccc(F)cc3)nn3cc(C(F)(F)F)ccc23)n1`, the inhibition [1] was -4% and -5%, the inhibition [2] was 2% and the inhibition [3] was -3% and 0%.
For `CC(C)=Cc1cccc2c1/C(=N/Nc1ccc(S(N)(=O)=O)cc1)C(=O)N2`, the inhibition [1] was -1% and 0%, the inhibition [2] was -2% and 1% and the inhibition [3] was 33%.
With `CNC(=O)c1cc(-c2ccc(F)cc2)cc(-c2ccc(S(=O)(=O)N3CCCC3)cc2)c1N` the inhibition [1] was 3% and 4%, the inhibition [2] was -3% and -6% and the inhibition [3] was 0% and -1%.
`COc1cccc(-c2c[nH]c3c(N/N=C/c4ccncc4)ncnc23)c1` was tested, and the inhibition [1] was -3% and -6%, the inhibition [2] was 2% and the inhibition [3] was 35% and 33%.
With `Fc1ccc(-c2ncn(C3CCNCC3)c2-c2ccnc(Oc3ccc(Oc4ccccc4)cc3)n2)cc1` the inhibition [1] was 0%, the inhibition [2] was -5% and -4% and the inhibition [3] was 1%.
`CC(C)c1ccc(-c2cc(-c3c[nH]nc3-c3ccccn3)ccn2)cc1` was tested, and the inhibition [1] was -3% and -1%, the inhibition [2] was 1% and 0% and the inhibition [3] was -5%.
In the case of `CCc1cccc(NC(=O)Nc2ccc(Oc3ccc4nc(NC(=O)OC)[nH]c4c3)cc2)c1`, the inhibition [1] is reported as 0% and 6%, the inhibition [2] is reported as -10% and the inhibition [3] is reported as -3% and -1%.
For `CCS(=O)(=O)c1ccc(OC)c(Nc2nccc(N(C)c3ccc4c(C)n[nH]c4c3)n2)c1`, the inhibition [1] was 3% and -7%, the inhibition [2] was -7% and 2% and the inhibition [3] was 8% and 7%.
